{"source": "paper PMC6010027", "about": "“Iodine-mediated one-pot intramolecular decarboxylation domino reaction for accessing functionalised 2-(1,3,4-oxadiazol-2-yl)anilines with carbonic anhydrase inhibitory action” (Journal of Enzyme Inhibition and Medicinal Chemistry, 2018)", "assay_in_all_cases": "stopped-flow CO2 hydrase assay", "type_in_all_cases": "biochemical", "key": {"[1]": {"biological_target": "T1, hCA IV (Homo sapiens, UniProt P22748)", "T1 construct": "gene CA4; recombinant; membrane-anchored isoform", "T1 sequence (P22748 19-284)": "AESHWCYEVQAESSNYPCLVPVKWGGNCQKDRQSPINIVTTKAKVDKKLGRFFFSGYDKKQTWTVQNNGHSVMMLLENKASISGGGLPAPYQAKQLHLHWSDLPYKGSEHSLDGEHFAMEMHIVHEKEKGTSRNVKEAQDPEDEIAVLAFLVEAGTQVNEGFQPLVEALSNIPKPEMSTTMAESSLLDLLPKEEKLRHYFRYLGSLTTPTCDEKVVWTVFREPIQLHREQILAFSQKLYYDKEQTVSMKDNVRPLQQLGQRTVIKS", "description": "stopped-flow CO2 hydrase assay on hCA IV"}, "[2]": {"biological_target": "T2, hCA II (Homo sapiens, UniProt P00918)", "T2 construct": "gene CA2; recombinant; cytosolic isoform", "description": "stopped-flow CO2 hydrase assay on hCA II"}, "[3]": {"biological_target": "T3, hCA IX (Homo sapiens, UniProt Q16790)", "T3 construct": "gene CA9; recombinant; transmembrane isoform", "description": "stopped-flow CO2 hydrase assay on hCA IX"}, "[4]": {"biological_target": "T4, hCA I (Homo sapiens, UniProt P00915)", "T4 construct": "gene CA1; recombinant; cytosolic isoform", "T4 sequence (P00915 2-261)": "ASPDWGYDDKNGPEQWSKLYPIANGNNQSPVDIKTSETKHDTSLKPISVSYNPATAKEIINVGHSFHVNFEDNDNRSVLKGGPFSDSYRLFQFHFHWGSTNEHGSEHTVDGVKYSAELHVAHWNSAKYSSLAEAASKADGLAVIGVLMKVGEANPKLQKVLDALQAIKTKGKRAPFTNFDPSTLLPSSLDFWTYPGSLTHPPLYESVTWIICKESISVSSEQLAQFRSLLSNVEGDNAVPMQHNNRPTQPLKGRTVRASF", "description": "stopped-flow CO2 hydrase assay on hCA I"}}, "data": [{"smiles": "COc1ccc(N)c(-c2nnc(-c3ccc(S(N)(=O)=O)cc3)o2)c1", "note": "[8c, 4-(5-(2-Amino-5-methoxyphenyl)-1,3,4-oxadiazol-2-yl)benzenesulfonamide]", "values": [{"measurement": "Ki", "setting": "[1]", "value": 5920, "unit": "nM"}, {"measurement": "Ki", "setting": "[2]", "value": 16.4, "unit": "nM"}, {"measurement": "Ki", "setting": "[3]", "value": 282, "unit": "nM"}, {"measurement": "Ki", "setting": "[4]", "value": 321, "unit": "nM"}]}, {"smiles": "Cc1cc(C)c(N)c(-c2nnc(-c3ccc(S(N)(=O)=O)cc3)o2)c1", "note": "[8h, 4-(5-(2-Amino-3,5-dimethylphenyl)-1,3,4-oxadiazol-2-yl)benzenesulfonamide]", "values": [{"measurement": "Ki", "setting": "[1]", "value": 7590, "unit": "nM"}, {"measurement": "Ki", "setting": "[2]", "value": 17.6, "unit": "nM"}, {"measurement": "Ki", "setting": "[3]", "value": 2030, "unit": "nM"}, {"measurement": "Ki", "setting": "[4]", "value": 89.1, "unit": "nM"}]}, {"smiles": "Nc1ccc(OC(F)(F)F)cc1-c1nnc(-c2cccc(S(N)(=O)=O)c2)o1", "note": "[8n, 3-(5-(2-Amino-5-(trifluoromethoxy)phenyl)-1,3,4-oxadiazol-2-yl)benzenesulfonamide]", "values": [{"measurement": "Ki", "setting": "[1]", "value": 9430, "unit": "nM"}, {"measurement": "Ki", "setting": "[2]", "value": 480, "unit": "nM"}, {"measurement": "Ki", "setting": "[3]", "value": 255, "unit": "nM"}, {"measurement": "Ki", "setting": "[4]", "value": 344, "unit": "nM"}]}, {"smiles": "Nc1ccccc1-c1nnc(-c2cccc(S(N)(=O)=O)c2)o1", "note": "[8j, 3-(5-(2-Aminophenyl)-1,3,4-oxadiazol-2-yl)benzenesulfonamide]", "values": [{"measurement": "Ki", "setting": "[1]", "value": 526, "unit": "nM"}, {"measurement": "Ki", "setting": "[2]", "value": 46.9, "unit": "nM"}, {"measurement": "Ki", "setting": "[3]", "value": 2920, "unit": "nM"}, {"measurement": "Ki", "setting": "[4]", "value": 3310, "unit": "nM"}]}, {"smiles": "Cc1ccc(N)c(-c2nnc(-c3cccc(S(N)(=O)=O)c3)o2)c1", "note": "[8k, 3-(5-(2-Amino-5-methylphenyl)-1,3,4-oxadiazol-2-yl)benzenesulfonamide]", "values": [{"measurement": "Ki", "setting": "[1]", "value": 437, "unit": "nM"}, {"measurement": "Ki", "setting": "[2]", "value": 64.6, "unit": "nM"}, {"measurement": "Ki", "setting": "[3]", "value": 2960, "unit": "nM"}, {"measurement": "Ki", "setting": "[4]", "value": 5830, "unit": "nM"}]}, {"smiles": "Cc1ccc(N)c(-c2nnc(-c3ccc(S(N)(=O)=O)cc3)o2)c1", "note": "[8b, 4-(5-(2-Amino-5-methylphenyl)-1,3,4-oxadiazol-2-yl)benzenesulfonamide]", "values": [{"measurement": "Ki", "setting": "[1]", "value": 5610, "unit": "nM"}, {"measurement": "Ki", "setting": "[2]", "value": 51.5, "unit": "nM"}, {"measurement": "Ki", "setting": "[3]", "value": 1600, "unit": "nM"}, {"measurement": "Ki", "setting": "[4]", "value": 270, "unit": "nM"}]}, {"smiles": "Nc1ccc(F)cc1-c1nnc(-c2cccc(S(N)(=O)=O)c2)o1", "note": "[8m, 3-(5-(2-Amino-5-fluorophenyl)-1,3,4-oxadiazol-2-yl)benzenesulfonamide]", "values": [{"measurement": "Ki", "setting": "[1]", "value": 548, "unit": "nM"}, {"measurement": "Ki", "setting": "[2]", "value": 307, "unit": "nM"}, {"measurement": "Ki", "setting": "[3]", "value": 2570, "unit": "nM"}, {"measurement": "Ki", "setting": "[4]", "value": 747, "unit": "nM"}]}, {"smiles": "Nc1ccc(OC(F)(F)F)cc1-c1nnc(-c2ccc(S(N)(=O)=O)cc2)o1", "note": "[8f, 4-(5-(2-Amino-5-(trifluoromethoxy)phenyl)-1,3,4-oxadiazol-2-yl)benzenesulfonamide]", "values": [{"measurement": "Ki", "setting": "[1]", "value": 2170, "unit": "nM"}, {"measurement": "Ki", "setting": "[2]", "value": 93.2, "unit": "nM"}, {"measurement": "Ki", "setting": "[3]", "value": 2450, "unit": "nM"}, {"measurement": "Ki", "setting": "[4]", "value": 710, "unit": "nM"}]}, {"smiles": "COc1ccc(N)c(-c2nnc(-c3cccc(S(N)(=O)=O)c3)o2)c1", "note": "[8l, 3-(5-(2-Amino-5-methoxyphenyl)-1,3,4-oxadiazol-2-yl)benzenesulfonamide]", "values": [{"measurement": "Ki", "setting": "[1]", "value": 588, "unit": "nM"}, {"measurement": "Ki", "setting": "[2]", "value": 516, "unit": "nM"}, {"measurement": "Ki", "setting": "[3]", "value": 2720, "unit": "nM"}, {"measurement": "Ki", "setting": "[4]", "value": 3510, "unit": "nM"}]}, {"smiles": "Nc1ccccc1-c1nnc(-c2ccc(S(N)(=O)=O)cc2)o1", "note": "[8a, 4-(5-(2-Aminophenyl)-1,3,4-oxadiazol-2-yl)benzenesulfonamide]", "values": [{"measurement": "Ki", "setting": "[1]", "value": 7340, "unit": "nM"}, {"measurement": "Ki", "setting": "[2]", "value": 34.1, "unit": "nM"}, {"measurement": "Ki", "setting": "[3]", "value": 1890, "unit": "nM"}, {"measurement": "Ki", "setting": "[4]", "value": 222, "unit": "nM"}]}, {"smiles": "Nc1c(F)cccc1-c1nnc(-c2cccc(S(N)(=O)=O)c2)o1", "note": "[8o, 3-(5-(2-Amino-3-fluorophenyl)-1,3,4-ovxadiazol-2-yl)benzenesulfonamide]", "values": [{"measurement": "Ki", "setting": "[1]", "value": 522, "unit": "nM"}, {"measurement": "Ki", "setting": "[2]", "value": 86.3, "unit": "nM"}, {"measurement": "Ki", "setting": "[3]", "value": 140, "unit": "nM"}, {"measurement": "Ki", "setting": "[4]", "value": 731, "unit": "nM"}]}, {"smiles": "Nc1ccc(Cl)cc1-c1nnc(-c2ccc(S(N)(=O)=O)cc2)o1", "note": "[8e, 4-(5-(2-Amino-5-chlorophenyl)-1,3,4-oxadiazol-2-yl)benzenesulfonamide]", "values": [{"measurement": "Ki", "setting": "[1]", "value": 8240, "unit": "nM"}, {"measurement": "Ki", "setting": "[2]", "value": 221, "unit": "nM"}, {"measurement": "Ki", "setting": "[3]", "value": 2370, "unit": "nM"}, {"measurement": "Ki", "setting": "[4]", "value": 3500, "unit": "nM"}]}, {"smiles": "Nc1ccc(F)cc1-c1nnc(-c2ccc(S(N)(=O)=O)cc2)o1", "note": "[8d, 4-(5-(2-Amino-5-fluorophenyl)-1,3,4-oxadiazol-2-yl)benzenesulfonamide]", "values": [{"measurement": "Ki", "setting": "[1]", "value": 6330, "unit": "nM"}, {"measurement": "Ki", "setting": "[2]", "value": 43.7, "unit": "nM"}, {"measurement": "Ki", "setting": "[3]", "value": 1600, "unit": "nM"}, {"measurement": "Ki", "setting": "[4]", "value": 736, "unit": "nM"}]}, {"smiles": "Nc1c(F)cccc1-c1nnc(-c2ccc(S(N)(=O)=O)cc2)o1", "note": "[8g, 4-(5-(2-Amino-3-fluorophenyl)-1,3,4-oxadiazol-2-yl)benzenesulfonamide]", "values": [{"measurement": "Ki", "setting": "[1]", "value": 2020, "unit": "nM"}, {"measurement": "Ki", "setting": "[2]", "value": 6.4, "unit": "nM"}, {"measurement": "Ki", "setting": "[3]", "value": 2270, "unit": "nM"}, {"measurement": "Ki", "setting": "[4]", "value": 81.4, "unit": "nM"}]}, {"smiles": "Nc1c(Cl)cc(Cl)cc1-c1nnc(-c2ccc(S(N)(=O)=O)cc2)o1", "note": "[8i, 4-(5-(2-Amino-3,5-dichlorophenyl)-1,3,4-oxadiazol-2-yl)benzenesulfonamide]", "values": [{"measurement": "Ki", "setting": "[1]", "value": 6780, "unit": "nM"}, {"measurement": "Ki", "setting": "[2]", "value": 46.4, "unit": "nM"}, {"measurement": "Ki", "setting": "[3]", "value": 2740, "unit": "nM"}, {"measurement": "Ki", "setting": "[4]", "value": 813, "unit": "nM"}]}]}
